Reference: ChEMBL document CHEMBL1201862, “PubChem BioAssay data set” (2004)
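Each compound was tested at five concentrations against cells in 96-well plates for 48 hours. The concentration for 50% growth inhibition is given as GI50.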 Calls of active or inactive are those of the source. Rule as the data show it: active = GI50 up to about 1.1 µM and inactive = higher.

How the values were obtained:
Test in all cases: NCI tumour cell line growth inhibition, 48 h
[1] = tested on: DMS-273
[2] = tested on: HOP-18
[3] = tested on: LXFL 529
[4] = tested on: SNB-78
[5] = tested on: RXF 631
[6] = tested on: XF498
[7] = tested on: BT-549
[8] = tested on: MDA-N
[9] = tested on: Hs-578T

Structure (SMILES) | GI50 [1] | GI50 [2] | GI50 [3] | GI50 [4] | GI50 [5] | GI50 [6] | GI50 [7] | GI50 [8] | GI50 [9]
CCOC(=O)C1=C(Nc2ccc(Cl)cc2Cl)OC/C1=N\NS(=O)(=O)c1ccc(C)cc1 | > 100 µM (inactive) | > 100 µM (inactive) | > 100 µM (inactive) | > 100 µM (inactive) | – | – | – | – | –
Cc1cccc(C(C)(C)C)c1NC(=O)CCc1nnc(S)[nH]1 | > 100 µM (inactive) | – | > 100 µM (inactive) | > 100 µM (inactive) | > 100 µM (inactive) | > 100 µM (inactive) | – | – | –
O=c1oc2c(ccc3occc32)c(N2CCCCC2)c1-c1ccccc1 | > 100 µM (inactive) | > 88.5 µM (inactive) | – | > 91.8 µM (inactive) | – | > 100 µM (inactive) | – | – | –
O=C(CC(=O)n1nc(-c2ccccc2)c(/N=N/c2ccc(Cl)cc2)c1-c1ccccc1)Nc1ccc(Cl)cc1 | > 55.1 µM (inactive) | > 100 µM (inactive) | > 60 µM (inactive) | > 100 µM (inactive) | > 100 µM (inactive) | – | – | – | –
C#Cc1c(C)c(/C=C/C(C)=C/C=C/C(C)=C/C(=O)OC)n(C)c1C | – | – | > 100 µM (inactive) | > 100 µM (inactive) | > 100 µM (inactive) | > 100 µM (inactive) | – | – | –
N#CCCc1nc2ccc(Br)cc2c(=O)n1-c1ccc(O)c([N+](=O)[O-])c1 | – | – | 20 µM (inactive) | 24.2 µM (inactive) | 17.9 µM (inactive) | 17.1 µM (inactive) | – | – | –
Cc1cc(Cl)cc2c1NC(=O)C2(O)C(C)C(=O)c1ccc(Cl)cc1 (stereo not given) | > 83.2 µM (inactive) | > 92.9 µM (inactive) | > 66.5 µM (inactive) | > 66.2 µM (inactive) | – | 42.6 µM (inactive) | – | – | –
CCOC1=CP(=O)(OCC)CC(C)=C1Cl (stereo not given) | 15.7 µM (inactive) | – | > 100 µM (inactive) | > 100 µM (inactive) | – | – | – | – | –
O=C(O)CCNCCCNCCC(=O)O | > 100 µM (inactive) | > 100 µM (inactive) | > 100 µM (inactive) | – | > 100 µM (inactive) | > 100 µM (inactive) | – | – | –
Cc1nc2c(o1)/C(=N\c1ccccc1)c1ccccc1/C2=N/c1ccccc1 | 63.5 µM (inactive) | > 100 µM (inactive) | 45.3 µM (inactive) | 70.1 µM (inactive) | 81.7 µM (inactive) | > 100 µM (inactive) | – | – | –
Cc1ccccc1C(=O)c1c(O)c2c(c(O)c1Br)CCCC2 | 17.6 µM (inactive) | 12.5 µM (inactive) | 13 µM (inactive) | 21.5 µM (inactive) | – | 21.7 µM (inactive) | – | – | –
CCCC/C=C1\CCC(CN2CCOCC2)C1=O (stereo not given) | 3.74 µM (inactive) | 0.653 µM (active) | 1.43 µM (inactive) | 8.39 µM (inactive) | 14.9 µM (inactive) | 1.64 µM (inactive) | 3.56 µM (inactive) | 10.7 µM (inactive) | –
C=C1CCC23CC(CC[C@@H]2[C@@]12C[C@@H](c1ccoc1)OC2=O)OC3=O (stereo not given in full) | > 100 µM (inactive) | > 100 µM (inactive) | > 100 µM (inactive) | > 100 µM (inactive) | – | > 100 µM (inactive) | – | – | –
Cc1cc(O)c2c(c1)C(=O)c1cc(O)cc(O)c1C2=O [EMODIN] | 19.8 µM (inactive) | 3.94 µM (inactive) | 24.4 µM (inactive) | 49.2 µM (inactive) | 39.3 µM (inactive) | 26.1 µM (inactive) | – | – | –
O=C(N[C@@H](c1ccccc1)[C@@H](O)C(=O)OCc1ccc2c(c1)OCO2)c1ccccc1 | > 100 µM (inactive) | > 100 µM (inactive) | – | > 100 µM (inactive) | – | > 76.2 µM (inactive) | – | – | –
CCOC(=O)NC(=O)c1cn(CCSCCOC(=O)NCCCCCCNC(=O)OCCSCCn2cc(C(=O)NC(=O)OCC)c(=O)n(C)c2=O)c(=O)n(C)c1=O | – | 0.237 µM (active) | 5.36 µM (inactive) | > 100 µM (inactive) | 21 µM (inactive) | 18.1 µM (inactive) | – | – | –
CS/C(=N\C(=S)N(C)C)N(c1ccccc1)c1nc(N(C)C)s[s+]1 | 3.52 µM (inactive) | – | 3.87 µM (inactive) | 16.9 µM (inactive) | – | – | – | – | –

Structure (SMILES) | GI50 [1] | GI50 [2] | GI50 [3] | GI50 [4] | GI50 [5] | GI50 [6] | GI50 [7] | GI50 [8] | GI50 [9]
CCCCCCCCOC(CO)CO | > 100 µM (inactive) | > 100 µM (inactive) | > 100 µM (inactive) | – | – | – | – | – | –
O=c1nc(-c2ccccc2)scc1-c1ccccc1 | – | > 100 µM (inactive) | > 100 µM (inactive) | – | > 100 µM (inactive) | > 100 µM (inactive) | – | – | –
COC(=O)C1CCC[C@H]2C(CO)=C(C)C(=O)[C@@H]12 (stereo not given in full) | > 100 µM (inactive) | > 100 µM (inactive) | > 100 µM (inactive) | > 100 µM (inactive) | – | > 100 µM (inactive) | – | – | –
N#C/N=C(/N)NCO | > 90.4 µM (inactive) | > 100 µM (inactive) | > 63.1 µM (inactive) | > 100 µM (inactive) | > 100 µM (inactive) | > 60.8 µM (inactive) | – | – | –
CC1(c2cc3c(cc2Br)OCO3)SCCCS1 | 45.2 µM (inactive) | – | 45.7 µM (inactive) | 24.3 µM (inactive) | 44.9 µM (inactive) | 29.5 µM (inactive) | – | – | –
CC(NC1CCCC[C@@H]1O)c1ccccc1 (stereo not given in full) | > 100 µM (inactive) | > 100 µM (inactive) | > 100 µM (inactive) | > 100 µM (inactive) | – | > 100 µM (inactive) | – | – | –
COc1ccc(NC(C)=O)c(C(=O)CCNC(C)=O)c1 | – | – | – | – | – | – | > 100 µM (inactive) | > 100 µM (inactive) | > 100 µM (inactive)
CCOC(=O)/C=C/c1c[nH]c(=O)[nH]c1=O | > 75 µM (inactive) | > 75 µM (inactive) | – | > 75 µM (inactive) | – | 11.9 µM (inactive) | – | – | –
CCOC(=O)C1=C(C)N(NC(N)=O)C(C)(O)C12CCOC2=O (stereo not given) | > 100 µM (inactive) | – | > 100 µM (inactive) | 1.97 µM (inactive) | > 100 µM (inactive) | > 100 µM (inactive) | – | – | –
C#C[C@]1(O)CC[C@H]2[C@@H]3CCC4=C/C(=N/NC(=O)c5cccc6cc7ccccc7nc56)CC[C@@H]4[C@H]3CC[C@@]21CC | – | – | – | – | – | – | > 100 µM (inactive) | 93.3 µM (inactive) | 94 µM (inactive)
N#CC(C#N)=Cc1ccc(C(O)P(=O)(O)O)cc1 (stereo not given) | > 100 µM (inactive) | > 100 µM (inactive) | > 100 µM (inactive) | > 100 µM (inactive) | > 100 µM (inactive) | > 100 µM (inactive) | – | – | –
CN(C)/N=C(\CCN1CCCC1)CC(c1ccccc1)c1c(O)c2ccccc2oc1=O (stereo not given) | – | – | > 100 µM (inactive) | – | – | > 100 µM (inactive) | – | – | –
CCc1ccccc1NC(=O)CCc1n[nH]c(=S)o1 | > 100 µM (inactive) | > 100 µM (inactive) | > 100 µM (inactive) | > 100 µM (inactive) | – | – | – | – | –
COC(=O)/C(=N/O)C(C(=O)OC)C(=O)C(=O)Nc1c(Cl)cc(C)cc1S(=O)(=O)O (stereo not given) | 18 µM (inactive) | > 100 µM (inactive) | > 100 µM (inactive) | > 100 µM (inactive) | > 100 µM (inactive) | > 100 µM (inactive) | – | – | –
CC1C(=O)CC(c2cccs2)N(N=O)C1c1cccs1 (stereo not given) | 38.5 µM (inactive) | 75.2 µM (inactive) | – | 35.7 µM (inactive) | – | 3.08 µM (inactive) | – | – | –
O=C(O)COc1ccccc1C(=O)Nc1ccccc1 | > 100 µM (inactive) | – | > 100 µM (inactive) | > 100 µM (inactive) | – | > 100 µM (inactive) | – | – | –
